Target: T1, USP28 (His-tagged USP28-FL-mammalian) (Homo sapiens, UniProt Q96RU2)
T1 construct: Expression of USP28 (1-1077)-TEV-6*His (pTT5 vector); made in house; host or cells: Expi293f cells (pTT5 vector)
T1 sequence (Q96RU2 1-1077): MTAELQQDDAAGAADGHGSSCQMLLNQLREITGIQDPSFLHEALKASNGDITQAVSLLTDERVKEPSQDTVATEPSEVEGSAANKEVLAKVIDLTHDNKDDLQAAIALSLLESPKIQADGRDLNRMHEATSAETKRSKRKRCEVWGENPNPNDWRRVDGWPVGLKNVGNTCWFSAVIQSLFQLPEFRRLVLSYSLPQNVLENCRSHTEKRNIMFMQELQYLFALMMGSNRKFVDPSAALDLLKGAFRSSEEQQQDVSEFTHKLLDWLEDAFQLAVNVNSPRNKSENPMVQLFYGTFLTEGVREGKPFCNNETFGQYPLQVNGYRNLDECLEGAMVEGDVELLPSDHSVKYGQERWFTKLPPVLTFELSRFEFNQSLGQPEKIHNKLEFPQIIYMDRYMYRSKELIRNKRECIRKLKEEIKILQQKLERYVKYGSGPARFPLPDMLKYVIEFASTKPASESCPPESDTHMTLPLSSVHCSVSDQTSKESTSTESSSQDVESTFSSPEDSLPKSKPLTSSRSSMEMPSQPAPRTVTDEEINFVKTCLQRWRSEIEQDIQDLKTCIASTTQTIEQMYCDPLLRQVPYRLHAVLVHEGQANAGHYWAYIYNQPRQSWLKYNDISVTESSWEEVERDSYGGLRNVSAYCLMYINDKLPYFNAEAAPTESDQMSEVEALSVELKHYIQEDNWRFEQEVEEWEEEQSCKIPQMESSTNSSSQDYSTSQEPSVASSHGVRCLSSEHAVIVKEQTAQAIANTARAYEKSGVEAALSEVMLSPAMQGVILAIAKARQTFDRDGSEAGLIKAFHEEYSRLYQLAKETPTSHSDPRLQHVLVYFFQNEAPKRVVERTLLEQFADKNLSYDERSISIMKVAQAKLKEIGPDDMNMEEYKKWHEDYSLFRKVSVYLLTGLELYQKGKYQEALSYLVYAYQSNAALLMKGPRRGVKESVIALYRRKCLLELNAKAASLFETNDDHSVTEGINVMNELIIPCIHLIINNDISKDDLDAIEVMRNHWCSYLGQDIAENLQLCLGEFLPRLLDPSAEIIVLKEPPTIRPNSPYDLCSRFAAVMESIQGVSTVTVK
Assay: Ubiquitin-Rhodamine 110 Assay for USP28 Activity, Example A-1(a)
Format: biochemical
Details: Ubiquitin-Rhodamine 110 assay, Example A-1(a); read-out: USP28 A-1(a) IC50 range
Summary of the method: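 Full-length His-tagged USP28 (1-1077, Expi293F-expressed; […]) was preincubated 30 min with compound (25 μM–1.3 nM, 10-point 3-fold) in 20 mM Tris-HCl pH 8.0, 3 mM BME, 0.03% BGG, 0.01% Triton X-100. Ub-Rh110 (25 nM) was then added for 45 min at room temperature, stopped with citric acid, and read by fluorescence (485/535 nm).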

SMILES | IC50 [nM]
Cc1cc(C)c2c(N)c(C(=O)N[C@H]3COc4cc(N5CC[C@@H]6CNC[C@@H]65)ccc4C3)sc2n1 [Example 227, N-[(3R)-7-[(3aR,6aR)-octahydropyrrolo[2,3-c]pyrrol-1-yl]-3,4-dihydro-2H-1-benzopyran-3-yl]-3-amino-4,6-dimethylthieno[2,3-b]pyridine-2-carboxamide] | 1 to 50
N#Cc1c(N2CC3CCC(C2)N3)cc(F)c2c1OC[C@H](NC(=O)c1cnc3c(c1)[C@@H]1C[C@@H]1CN3)C2 [Example 228, (6aS,7aR)-N-[(3R)-8-cyano-7-{3,8-diazabicyclo[3.2.1]octan-3-yl}-5-fluoro-3,4-dihydro-2H-1-benzopyran-3-yl]-5H,6H,6aH,7H,7aH-cyclopropa[c]1,8-naphthyridine-2-carboxamide] | 200 to 2000
N#Cc1c(N2CC3CCC(C2)N3)cc(F)c2c1OC[C@H](NC(=O)c1cnc3c(c1)[C@H]1C[C@H]1CN3)C2 [Example 229, (6aR,7aS)-N-[(3R)-8-cyano-7-{3,8-diazabicyclo[3.2.1]octan-3-yl}-5-fluoro-3,4-dihydro-2H-1-benzopyran-3-yl]-5H,6H,6aH,7H,7aH-cyclopropa[c]1,8-naphthyridine-2-carboxamide] | 200 to 2000
Cc1cc(C)c2c(N)c(C(=O)N[C@H]3COc4c(C#N)c(N5CC6CCC(C5)N6)cc(F)c4C3)sc2n1 [Example 230, 3-amino-N-[(3R)-8-cyano-7-{3,8-diazabicyclo[3.2.1]octan-3-yl}-5-fluoro-3,4-dihydro-2H-1-benzopyran-3-yl]-4,6-dimethylthieno[2,3-b]pyridine-2-carboxamide] | 1 to 50
Cc1ccc2c(N)c(C(=O)N[C@H]3COc4cc(N5CC[C@H]6CC[C@@H](N)C[C@H]65)ccc4C3)sc2n1 [Example 231, N-[(3R)-7-[(3aR,6R,7aR)-6-amino-octahydro-1H-indol-1-yl]-3,4-dihydro-2H-1-benzopyran-3-yl]-3-amino-6-methylthieno[2,3-b]pyridine-2-carboxamide] | 1 to 50
Cc1ccc2c(N)c(C(=O)N[C@H]3COc4cc(N5CC[C@H]6CC[C@H](N)C[C@H]65)ccc4C3)sc2n1 [Example 232, N-[(3R)-7-[(3aR,6S,7aR)-6-amino-octahydro-1H-indol-1-yl]-3,4-dihydro-2H-1-benzopyran-3-yl]-3-amino-6-methylthieno[2,3-b]pyridine-2-carboxamide] | 1 to 50
Cc1ccc2c(N)c(C(=O)N[C@H]3COc4cc(N5CC[C@@H]6CC[C@@H](N)C[C@@H]65)ccc4C3)sc2n1 [Example 233, N-[(3R)-7-[(3aS,6R,7aS)-6-amino-octahydro-1H-indol-1-yl]-3,4-dihydro-2H-1-benzopyran-3-yl]-3-amino-6-methylthieno[2,3-b]pyridine-2-carboxamide] | 1 to 50
Cc1ccc2c(N)c(C(=O)N[C@H]3COc4cc(N5CC[C@@H]6CC[C@H](N)C[C@@H]65)ccc4C3)sc2n1 [Example 234, N-[(3R)-7-[(3aS,6S,7aS)-6-amino-octahydro-1H-indol-1-yl]-3,4-dihydro-2H-1-benzopyran-3-yl]-3-amino-6-methylthieno[2,3-b]pyridine-2-carboxamide] | 1 to 50
Cc1ccc2c(N)c(C(=O)N[C@H]3COc4cc(N5CC[C@H]6CNCC[C@H]65)ccc4C3)sc2n1 [Example 235, N-[(3R)-7-[(3aS,7aR)-octahydro-1H-pyrrolo[3,2-c]pyridin-1-yl]-3,4-dihydro-2H-1-benzopyran-3-yl]-3-amino-6-methylthieno[2,3-b]pyridine-2-carboxamide] | 1 to 50
Cc1ccc2c(N)c(C(=O)N[C@H]3COc4cc(N5CC[C@@H]6CNCC[C@@H]65)ccc4C3)sc2n1 [Example 236, N-[(3R)-7-[(3aR,7aS)-octahydro-1H-pyrrolo[3,2-c]pyridin-1-yl]-3,4-dihydro-2H-1-benzopyran-3-yl]-3-amino-6-methylthieno[2,3-b]pyridine-2-carboxamide] | 1 to 50
Cc1ccc2c(N)c(C(=O)N[C@H]3COc4cc(N5C[C@@H]6NCCC(F)(F)[C@@H]6C5)ccc4C3)sc2n1 [Example 237, N-[(3R)-7-[(4aR,7aR)-4,4-difluoro-octahydro-1H-pyrrolo[3,4-b]pyridin-6-yl]-3,4-dihydro-2H-1-benzopyran-3-yl]-3-amino-6-methylthieno[2,3-b]pyridine-2-carboxamide] | 1 to 50
Cc1ccc2c(N)c(C(=O)N[C@H]3COc4cc(N5C[C@H]6NCCC(F)(F)[C@H]6C5)ccc4C3)sc2n1 [Example 238, N-[(3R)-7-[(4aS,7aS)-4,4-difluoro-octahydro-1H-pyrrolo[3,4-b]pyridin-6-yl]-3,4-dihydro-2H-1-benzopyran-3-yl]-3-amino-6-methylthieno[2,3-b]pyridine-2-carboxamide] | 1 to 50
CO[C@H]1CN(c2ccc3c(n2)CC[C@H](NC(=O)c2sc4nc(C)ccc4c2N)C3)C[C@]1(C)N [Example 239, 3-amino-N-[(6S)-2-[(3S,4S)-3-amino-4-methoxy-3-methylpyrrolidin-1-yl]-5,6,7,8-tetrahydroquinolin-6-yl]-6-methylthieno[2,3-b]pyridine-2-carboxamide] | 200 to 2000
CO[C@@H]1CN(c2ccc3c(n2)CC[C@H](NC(=O)c2sc4nc(C)ccc4c2N)C3)C[C@@]1(C)N [Example 240, 3-amino-N-[(6S)-2-[(3R,4R)-3-amino-4-methoxy-3-methylpyrrolidin-1-yl]-5,6,7,8-tetrahydroquinolin-6-yl]-6-methylthieno[2,3-b]pyridine-2-carboxamide] | 200 to 2000
Cc1cc(C)c2c(N)c(C(=O)N[C@H]3COc4cc(N5CC6CCC(C5)N6)c(C#N)c(F)c4C3)sc2n1 [Example 241, 3-amino-N-[(3R)-6-cyano-7-{3,8-diazabicyclo[3.2.1]octan-3-yl}-5-fluoro-3,4-dihydro-2H-1-benzopyran-3-yl]-4,6-dimethylthieno[2,3-b]pyridine-2-carboxamide] | 1 to 50
Cc1ccc2c(N)c(C(=O)N[C@H]3COc4cc(N5CCC[C@@H]6CNC[C@@H]65)ccc4C3)sc2n1 [Example 242, N-[(3R)-7-[(4aR,7aR)-octahydro-1H-pyrrolo[3,4-b]pyridin-1-yl]-3 ,4-dihydro-2H-1-benzopyran-3-yl]-3-amino-6-methylthieno[2,3-b]pyridine-2-carboxamide] | 1 to 50
Cc1ccc2c(N)c(C(=O)N[C@H]3COc4cc(N5CCC[C@H]6CNC[C@H]65)ccc4C3)sc2n1 [Example 243, N-[(3R)-7-[(4aS,7aS)-octahydro-1H-pyrrolo[3,4-b]pyridin-1-yl]-3,4-dihydro-2H-1-benzopyran-3-yl]-3-amino-6-methylthieno[2,3-b]pyridine-2-carboxamide] | 1 to 50
Cc1ccc2c(N)c(C(=O)N[C@H]3COc4cc(N5C[C@H](N)CC[C@@H]5C(F)(F)F)ccc4C3)sc2n1 [Example 244, 3-amino-N-[(3R)-7-[(2R,5R)-5-amino-2-(trifluoromethyl)piperidin-1-yl]-3,4-dihydro-2H-1-benzopyran-3-yl]-6-methylthieno[2,3-b]pyridine-2-carboxamide] | 1 to 50
Cc1ccc2c(N)c(C(=O)N[C@H]3COc4cc(N5C[C@@H](N)CC[C@H]5C(F)(F)F)ccc4C3)sc2n1 [Example 245, 3-amino-N-[(3R)-7-[(2S,5S)-5-amino-2-(trifluoromethyl)piperidin-1-yl]-3,4-dihydro-2H-1-benzopyran-3-yl]-6-methylthieno[2,3-b]pyridine-2-carboxamide] | 1 to 50
Cc1ccc2c(N)c(C(=O)N[C@H]3COc4cc(N5C[C@@H](N)CC[C@@H]5C(F)(F)F)ccc4C3)sc2n1 [Example 246, 3-amino-N-[(3R)-7-[(2R,5S)-5-amino-2-(trifluoromethyl)piperidin-1-yl]-3,4-dihydro-2H-1-benzopyran-3-yl]-6-methylthieno[2,3-b]pyridine-2-carboxamide] | 1 to 50
Cc1ccc2c(N)c(C(=O)N[C@H]3COc4cc(N5C[C@H](N)CC[C@H]5C(F)(F)F)ccc4C3)sc2n1 [Example 247, 3-amino-N-[(3R)-7-[(2S,5R)-5-amino-2-(trifluoromethyl)piperidin-1-yl]-3,4-dihydro-2H-1-benzopyran-3-yl]-6-methylthieno[2,3-b]pyridine-2-carboxamide] | 1 to 50

— patent US11524966B1 (Valo Early Discovery, Inc., priority 2017, dated 2022)
